{"source": "ChEMBL document CHEMBL1146350", "about": "“Synthesis of some new bioactive 3-amino-2-mercapto-5,6,7,8-tetrahydro[1]benzothieno[2,3-d]pyrimidin-4(3H)-one derivatives” (2007)", "key": {"Trichophyton benhamiae": {"tested_on": "Trichophyton benhamiae", "assay": "Antifungal activity against Trichophyton mentagrophytes by serial plate dilution method", "type": "functional, Arthroderma benhamiae", "settings": "for MIC: Trichophyton benhamiae"}, "Mus musculus [1]": {"tested_on": "Mus musculus", "assay": "Anticonvulsant activity in Swiss Albino mouse assessed as duration of seizure at 2 mg/kg, po by PTZ induced seizure test", "type": "functional"}, "Talaromyces marneffei": {"tested_on": "Talaromyces marneffei", "assay": "Antifungal activity against Penicillium marneffei by serial plate dilution method", "type": "functional", "settings": "for MIC: Talaromyces marneffei"}, "Mus musculus [2]": {"tested_on": "Mus musculus", "assay": "Antianxiety study in Swiss Albino mouse assessed as ratio of number of entreis in open arm to total entries at 50 mg/kg by elevated plus maze test", "type": "functional"}, "Mus musculus [3]": {"tested_on": "Mus musculus", "assay": "Anticonvulsant activity in Swiss Albino mouse assessed as duration of seizure at 50 mg/kg, po by PTZ induced seizure test", "type": "functional"}, "Escherichia coli": {"tested_on": "Escherichia coli", "assay": "Antibacterial activity against Escherichia coli ATCC 25922 by disc diffusion method", "type": "functional", "settings": "for MIC: Escherichia coli, ATCC 25922"}, "Staphylococcus aureus": {"tested_on": "Staphylococcus aureus", "assay": "Antibacterial activity against Staphylococcus aureus ATCC 25923 by disc diffusion method", "type": "functional", "settings": "for MIC: Staphylococcus aureus, ATCC 25923, read-out: MIC"}, "Mus musculus [4]": {"tested_on": "Mus musculus", "assay": "Effect on coordination in Swiss Albino mouse at 50 mg/kg by rotarod accelorod test", "type": "functional"}, "Aspergillus flavus": {"tested_on": "Aspergillus flavus", "assay": "Antifungal activity against Aspergillus flavus NCIM 524 by serial plate dilution method", "type": "functional", "settings": "for MIC: Aspergillus flavus, NCIM 524"}, "Mus musculus [5]": {"tested_on": "Mus musculus", "assay": "Anticonvulsant activity in Swiss Albino mouse assessed as mortality at 50 mg/kg, po by PTZ induced seizure test", "type": "functional, organism-based", "set-up": "dose 50 mg/kg"}, "Klebsiella pneumoniae": {"tested_on": "Klebsiella pneumoniae", "assay": "Antibacterial activity against Klebsiella pneumoniae by disc diffusion method", "type": "functional", "settings": "for MIC: Klebsiella pneumoniae"}, "Mus musculus [6]": {"species_on_record": "Mus musculus", "assay": "Effect on learning and memory in Swiss Albino mouse assessed as latent period on first day", "type": "functional"}, "Pseudomonas aeruginosa": {"tested_on": "Pseudomonas aeruginosa", "assay": "Antibacterial activity against Pseudomonas aeruginosa ATCC 27853 by disc diffusion method", "type": "functional", "settings": "for MIC: Pseudomonas aeruginosa, ATCC 27853"}, "Mus musculus [7]": {"tested_on": "Mus musculus", "assay": "Antianxiety study in Swiss Albino mouse assessed as time spent in close arm at 50 mg/kg by elevated plus maze model", "type": "functional"}, "Mus musculus [8]": {"tested_on": "Mus musculus", "assay": "Antianxiety study in Swiss Albino mouse assessed as time spent in open arm at 50 mg/kg by elevated plus maze model", "type": "functional"}, "Aspergillus fumigatus": {"tested_on": "Aspergillus fumigatus", "assay": "Antifungal activity against Aspergillus fumigatus NCIM 902 by serial plate dilution method", "type": "functional", "settings": "for MIC: Aspergillus fumigatus, NCIM 902"}, "Mus musculus [9]": {"species_on_record": "Mus musculus", "assay": "Effect on learning and memory in Swiss Albino mouse assessed as latent period on second day", "type": "functional"}, "Rattus norvegicus [10]": {"tested_on": "Rattus norvegicus", "assay": "Antiinflammatory activity in Wister Albino rat assessed as inhibition of paw edema at 50 mg/kg, po after 3hrs", "type": "functional"}, "Mus musculus [11]": {"tested_on": "Mus musculus", "assay": "Anticonvulsant activity in Swiss Albino mouse assessed as latency period at 50 mg/kg, po by PTZ induced seizure test", "type": "functional, organism-based", "set-up": "dose 50 mg/kg"}, "Rattus norvegicus [12]": {"tested_on": "Rattus norvegicus", "assay": "Antiinflammatory activity in Wister Albino rat assessed as inhibition of paw edema at 1.5 mg/kg, po after 3hrs", "type": "functional"}}, "note": "The source made the active and inactive calls. No cut-off for these calls is given here.", "data": [{"compound": "Cc1nn2c(=O)c3c4c(sc3nc2s1)CCCC4", "values": [{"measurement": "inhibition zone (IZ)", "setting": "Trichophyton benhamiae", "result": 7, "unit": "mm"}, {"measurement": "MIC", "setting": "Trichophyton benhamiae", "result": "> 100", "unit": "µg/mL"}, {"measurement": "Activity", "setting": "Mus musculus [1]", "result": 3600, "unit": "s"}, {"measurement": "inhibition zone (IZ)", "setting": "Talaromyces marneffei", "result": 16, "unit": "mm"}, {"measurement": "MIC", "setting": "Talaromyces marneffei", "result": 12.5, "unit": "µg/mL"}, {"measurement": "Activity", "setting": "Mus musculus [2]", "result": 16.67, "unit": "%"}, {"measurement": "Activity", "setting": "Mus musculus [3]", "result": 0, "unit": "s"}, {"measurement": "inhibition zone (IZ)", "setting": "Escherichia coli", "result": 18, "unit": "mm"}, {"measurement": "MIC", "setting": "Escherichia coli", "result": 10, "unit": "µg/mL"}, {"measurement": "inhibition zone (IZ)", "setting": "Staphylococcus aureus", "result": 20, "unit": "mm"}, {"measurement": "MIC", "setting": "Staphylococcus aureus", "result": 10, "unit": "µg/mL"}, {"measurement": "Activity", "setting": "Mus musculus [4]", "result": 284, "unit": "s"}, {"measurement": "inhibition zone (IZ)", "setting": "Aspergillus flavus", "result": 12, "unit": "mm"}, {"measurement": "MIC", "setting": "Aspergillus flavus", "result": 80, "unit": "µg/mL"}, {"measurement": "Activity", "setting": "Mus musculus [5]", "result": "Active"}, {"measurement": "inhibition zone (IZ)", "setting": "Klebsiella pneumoniae", "result": 20, "unit": "mm"}, {"measurement": "MIC", "setting": "Klebsiella pneumoniae", "result": 10, "unit": "µg/mL"}, {"measurement": "Activity", "setting": "Mus musculus [6]", "result": 39, "unit": "s"}, {"measurement": "inhibition zone (IZ)", "setting": "Pseudomonas aeruginosa", "result": 22, "unit": "mm"}, {"measurement": "MIC", "setting": "Pseudomonas aeruginosa", "result": 6.25, "unit": "µg/mL"}, {"measurement": "Activity", "setting": "Mus musculus [7]", "result": 285, "unit": "s"}, {"measurement": "Activity", "setting": "Mus musculus [8]", "result": 4, "unit": "s"}, {"measurement": "inhibition zone (IZ)", "setting": "Aspergillus fumigatus", "result": 16, "unit": "mm"}, {"measurement": "MIC", "setting": "Aspergillus fumigatus", "result": 12.5, "unit": "µg/mL"}, {"measurement": "Activity", "setting": "Mus musculus [9]", "result": 25, "unit": "s"}, {"measurement": "inhibition in vivo at 50 mg/kg", "setting": "Rattus norvegicus [10]", "result": 34.6, "unit": "%"}]}, {"compound": "CN1C(=O)CN=C(c2ccccc2)c2cc(Cl)ccc21", "values": [{"measurement": "Activity", "setting": "Mus musculus [11]", "result": "Active"}]}, {"compound": "COc1ccc2c(c1)c(CC(=O)O)c(C)n2C(=O)c1ccc(Cl)cc1", "note": "[INDOMETHACIN]", "values": [{"measurement": "inhibition in vivo at 1.5 mg/kg", "setting": "Rattus norvegicus [12]", "result": 53.3, "unit": "%"}]}, {"compound": "Cc1cc(C)cc(-c2nn3c(=O)c4c5c(sc4nc3s2)CCCC5)c1", "values": [{"measurement": "inhibition zone (IZ)", "setting": "Trichophyton benhamiae", "result": 9, "unit": "mm"}, {"measurement": "MIC", "setting": "Trichophyton benhamiae", "result": 80, "unit": "µg/mL"}, {"measurement": "Activity", "setting": "Mus musculus [1]", "result": 68, "unit": "s"}, {"measurement": "inhibition zone (IZ)", "setting": "Talaromyces marneffei", "result": 18, "unit": "mm"}, {"measurement": "MIC", "setting": "Talaromyces marneffei", "result": 12.5, "unit": "µg/mL"}, {"measurement": "Activity", "setting": "Mus musculus [2]", "result": 7.14, "unit": "%"}, {"measurement": "Activity", "setting": "Mus musculus [3]", "result": 0, "unit": "s"}, {"measurement": "inhibition zone (IZ)", "setting": "Escherichia coli", "result": 16, "unit": "mm"}, {"measurement": "MIC", "setting": "Escherichia coli", "result": 60, "unit": "µg/mL"}, {"measurement": "inhibition zone (IZ)", "setting": "Staphylococcus aureus", "result": 8, "unit": "mm"}, {"measurement": "MIC", "setting": "Staphylococcus aureus", "result": "> 100", "unit": "µg/mL"}, {"measurement": "Activity", "setting": "Mus musculus [4]", "result": 256, "unit": "s"}, {"measurement": "inhibition zone (IZ)", "setting": "Aspergillus flavus", "result": 7, "unit": "mm"}, {"measurement": "MIC", "setting": "Aspergillus flavus", "result": "> 100", "unit": "µg/mL"}, {"measurement": "Activity", "setting": "Mus musculus [5]", "result": "Active"}, {"measurement": "inhibition zone (IZ)", "setting": "Klebsiella pneumoniae", "result": 20, "unit": "mm"}, {"measurement": "MIC", "setting": "Klebsiella pneumoniae", "result": 10, "unit": "µg/mL"}, {"measurement": "Activity", "setting": "Mus musculus [6]", "result": 34, "unit": "s"}, {"measurement": "inhibition zone (IZ)", "setting": "Pseudomonas aeruginosa", "result": 18, "unit": "mm"}, {"measurement": "MIC", "setting": "Pseudomonas aeruginosa", "result": 60, "unit": "µg/mL"}, {"measurement": "Activity", "setting": "Mus musculus [7]", "result": 231, "unit": "s"}, {"measurement": "Activity", "setting": "Mus musculus [8]", "result": 56, "unit": "s"}, {"measurement": "inhibition zone (IZ)", "setting": "Aspergillus fumigatus", "result": 18, "unit": "mm"}, {"measurement": "MIC", "setting": "Aspergillus fumigatus", "result": 12.5, "unit": "µg/mL"}, {"measurement": "Activity", "setting": "Mus musculus [9]", "result": 18, "unit": "s"}, {"measurement": "inhibition in vivo at 50 mg/kg", "setting": "Rattus norvegicus [10]", "result": 31.1, "unit": "%"}]}]}
